# Assay: Pharmacokinetics study of intravenous injection of matrine or oxymatrine with addition of geranium oil
# Method: The Sophora root typically is about 10-30 cm long, 1-2 cm in diameter and generally takes on a grayish brown or grayish yellow color. The root preferably has a mild scent and an extremely bitter taste. It is grown mainly in China, Korea, and Japan. Presently, the alkaloids identified in Sophora roots are matrine, oxymatrine, sophoranol, N-methylcytisine, anagyrine, baptifoline, sophocarpine, sophoridine, iso matrine, 7, 11-Dehydromatrine, sophoramine, 7-Dehydrosophoramine, 9α-Hydroxy-Sophoramine, 5α,9α-Dihydroxymatrine, N-Oxysophocarpine, sophoranol N-oxide, rhombifoline, Lupanine, Mamanine, Kuraramine, Isokuraramine, Kurarinol. The known main constituents are matrine, oxymatrine. The principal main constituents of Sophora flavescenes are also found in Sophora subprostrata, Sophora tonkinensis, Sophora alopecuroides, Sophora moorcroftiana, and Euchresta strigillosa.
Compound,"effect of addition of geranium oil on absorption and metabolism of the compound (in vivo, iv)","effect of addition of geranium oil on absorption and metabolism of the compound (intravenous injection, with vs without geranium oil)"
O=C1CCC[C@@H]2[C@H]3CCC[N+]4([O-])CCC[C@@H](CN12)[C@@H]34 (some centres unmarked) [oxymatrine],increase the absorption and metabolism,
O=C1CCC[C@@H]2[C@H]3CCCN4CCC[C@@H](CN12)[C@@H]34 [matrine],,increase the absorption and metabolism

# — patent US7387806B2, “Method of using geranium oil and sophora root extracts as a supporting composition in cancer treatments” (priority 2001, dated 2008)
